# Results: patent US20240122180A1, “FUNGICIDAL HALOMETHYL KETONES AND HYDRATES AND THEIR MIXTURES” (FMC Corporation, priority 2020, published 2024)
# Experiments:
# [1] = tested on: Puccinia recondita f. sp. tritici (the causal agent of wheat leaf rust); experiment: Test B: preventive spray on wheat seedlings, disease rating (100 = 100% control; * 50 ppm, ** 10 ppm, *** 250 ppm); format: in vivo; details: 100 = 100% disease control, 0 = no control
# Summary of the method: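 Preventive test: Puccinia recondita f. sp. tritici spores were inoculated one day after run-off spraying of wheat seedlings with test suspension (acetone/water 50/50, 250 ppm PEG400). After 24 h in saturated air and 6 days in a growth chamber, both at 20° C, control was scored 0–100 versus untreated plants.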
# [2] = tested on: Phakopsora pachyrhizi (the causal agent of Asian soybean rust); experiment: Test A: preventive spray on soybean seedlings, visual disease rating (100 = 100% control; * 50 ppm, ** 10 ppm, *** 250 ppm); format: in vivo; details: 100 = 100% disease control, 0 = no control
# Summary of the method: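 Preventive test: one day after spraying compound (acetone/water suspension, 250 ppm PEG400), seedlings received rust spore inoculum, 24 h in saturated air then 8 days in growth chamber, both at 22 °C. Disease control scored visually, 100 = complete, 0 = none, relative to untreated controls.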
# [3] = Puccinia recondita, 10 ppm test suspension
# [4] = Phakopsora pachyrhizi, 10 ppm test suspension
Structure (SMILES),Test B disease control rating ([1]; 10 ppm test suspension) [%],Test A disease control rating ([2]; 10 ppm test suspension) [%],further results
C[Si](C)(C)CCOc1nccc(Cc2ccc(OCC3(C(F)(F)F)OCCO3)cc2)n1 [compound 314],–,–,Test B disease control rating ([1]; 50 ppm test suspension): 0%; Test A disease control rating ([2]; 50 ppm test suspension): 0%
CCOC(=O)c1cnn(-c2cccc(O/C=C(\OCC)C(F)(F)F)c2)c1 [compound 317],–,–,Test B disease control rating ([1]; 50 ppm test suspension): 0%; Test A disease control rating ([2]; 50 ppm test suspension): 0%
O=C(OC1CCC1)c1cnn(Cc2ccc(OCC3(C(F)(F)F)OCCO3)cc2)c1 [compound 318],0,100,–
CCOC(=O)c1cnn(Cc2ccc(OC(F)(F)C3(C(F)(F)F)OCCO3)cc2)c1 [compound 319],–,–,Test B disease control rating ([1]; 50 ppm test suspension): 41%; Test A disease control rating ([2]; 50 ppm test suspension): 100%
CCOC(=O)c1cnn(COc2cccc(O/C=C(\OCC)C(F)(F)F)c2)c1 [compound 321],–,–,"pest or weed control at 10 ppm [1, 3]: 0%; pest or weed control at 10 ppm [2, 4]: 100%"
CCO/C(=C\Oc1cccc(Cn2cc(C(=O)O)cn2)c1)C(F)(F)F [compound 323],–,–,Test B disease control rating ([1]; 50 ppm test suspension): 0%; Test A disease control rating ([2]; 50 ppm test suspension): 100%
CCCO/C(=C\Oc1cccc(Cn2cc(C(=O)OCC)cn2)c1)C(F)(F)F [compound 324],0,0,–
C#CCOC(=O)c1ccn(Cc2ccc(O/C=C(\OCC)C(F)(F)F)cc2)n1 [compound 325],0,100,–
CCC#CCOC(=O)c1ccn(Cc2ccc(O/C=C(\OCC)C(F)(F)F)cc2)n1 [compound 326],0,100,–
CCO/C(=C\Oc1ccc(Cn2ccc(C(=O)OC(C)C)n2)cc1)C(F)(F)F [compound 327],0,100,–
CCO/C(=C\Oc1ccc(CCn2cc(C(=O)O)cn2)cc1)C(F)(F)F [compound 328],0,100,–
CCO/C(=C\Oc1cccc(Cn2cc(C(=O)OC(C)C)cn2)c1)C(F)(F)F [compound 332],0,100,–
C=CCOC(=O)c1cnn(Cc2cccc(O/C=C(\OCC)C(F)(F)F)c2)c1 [compound 333],0,100,–
CCO/C(=C\Oc1cccc(Cn2cc(C(=O)OCC(C)C)cn2)c1)C(F)(F)F [compound 334],0,100,–
C=C(C)COC(=O)c1cnn(Cc2cccc(O/C=C(\OCC)C(F)(F)F)c2)c1 [compound 335],0,100,–
C#CCOC(=O)c1cnn(Cc2cccc(O/C=C(\OCC)C(F)(F)F)c2)c1 [compound 336],0,100,–
CCO/C(=C\Oc1cccc(Cn2cc(C(=O)OCC(C)=O)cn2)c1)C(F)(F)F [compound 337],0,100,–
CCO/C(=C\Oc1cccc(Cn2cc(C(=O)OCCCCl)cn2)c1)C(F)(F)F [compound 338],0,100,–
CCCCOC(=O)c1cnn(Cc2cccc(O/C=C(\OCC)C(F)(F)F)c2)c1 [compound 339],0,100,–
CCO/C(=C\Oc1cccc(Cn2cc(C(=O)OCCOC)cn2)c1)C(F)(F)F [compound 340],0,100,–
CCO/C(=C\Oc1cccc(Cn2cc(C(=O)OCC3CC3)cn2)c1)C(F)(F)F [compound 341],0,100,–
CCO/C(=C\Oc1cccc(Cn2cc(C(=O)OCC3CCC3)cn2)c1)C(F)(F)F [compound 342],0,100,–

Structure (SMILES),Test B disease control rating ([1]; 10 ppm test suspension) [%],Test A disease control rating ([2]; 10 ppm test suspension) [%],further results
CCNC(=O)c1cnn(Cc2cccc(O/C=C(\OCC)C(F)(F)F)c2)c1 [compound 343],0,0,–
CCOC(=O)c1cnn(Cc2ccc(O/C=C(\OCC)C(F)(F)F)c(Br)c2)c1 [compound 344],–,–,Test B disease control rating ([1]; 50 ppm test suspension): 0%; Test A disease control rating ([2]; 50 ppm test suspension): 100%
CCOC(=O)c1cnn(CCc2cccc(O/C=C(\OCC)C(F)(F)F)c2)c1 [compound 345],0,0,–
CCOC(=O)c1cnn(CCc2cccc(OCC(O)(O)C(F)(F)F)c2)c1 [compound 346],–,–,"pest or weed control at 10 ppm [1, 3]: 0%; pest or weed control at 10 ppm [2, 4]: 0%"
CCO/C(=C\Oc1cccc(Cn2cc(C(=O)OCC(F)F)cn2)c1)C(F)(F)F [compound 347],–,–,Test B disease control rating ([1]; 50 ppm test suspension): 0%; Test A disease control rating ([2]; 50 ppm test suspension): 100%
CCO/C(=C\Oc1cccc(Cn2cc(C(=O)OCCC(F)(F)F)cn2)c1)C(F)(F)F [compound 348],0,100,–
CCO/C(=C\Oc1cccc(Cn2cc(C(=O)OCCC(F)=C(F)F)cn2)c1)C(F)(F)F [compound 349],0,100,–
CCO/C(=C\Oc1cccc(Cn2cc(C(=O)OCCC(C)C)cn2)c1)C(F)(F)F [compound 350],0,100,–
CCO/C(=C\Oc1cccc(Cn2cc(C(=O)OCCCOC)cn2)c1)C(F)(F)F [compound 351],0,100,–
CCO/C(=C\Oc1cccc(Cn2cc(C(=O)OCCOC(F)(F)F)cn2)c1)C(F)(F)F [compound 352],0,100,–
CCOC(=O)c1cnn(COc2cccc(OCC3(C(F)(F)F)OCCO3)c2)c1 [compound 353],–,–,"pest or weed control at 50 ppm ([1]; Puccinia recondita, 50 ppm test suspension): 0%; pest or weed control at 50 ppm ([2]; Phakopsora pachyrhizi, 50 ppm test suspension): 0%"
CCO/C(=C\Oc1ccc(CCn2cc(C(=O)OC)cn2)cc1)C(F)(F)F [compound 354],0,100,–
CCO/C(=C\Oc1cccc(Cn2cc(C(=O)OCCCC(F)(F)F)cn2)c1)C(F)(F)F [compound 355],0,100,–
CCCCOC(=O)c1ccn(Cc2ccc(O/C=C(\OCC)C(F)(F)F)cc2)n1 [compound 356],0,100,–
CCO/C(=C\Oc1ccc(Cn2ccc(C(=O)OCC(C)C)n2)cc1)C(F)(F)F [compound 357],9,100,–
C=C(C)COC(=O)c1ccn(Cc2ccc(O/C=C(\OCC)C(F)(F)F)cc2)n1 [compound 358],0,100,–
CCO/C(=C\Oc1ccc(Cn2ccc(C(=O)OCC(C)=O)n2)cc1)C(F)(F)F [compound 359],0,100,–
CCO/C(=C\Oc1ccc(Cn2ccc(C(=O)OCCOC)n2)cc1)C(F)(F)F [compound 360],0,100,–
CCO/C(=C\Oc1ccc(Cn2ccc(C(=O)OCC3CCC3)n2)cc1)C(F)(F)F [compound 361],0,100,–
CCO/C(=C\Oc1ccc(Cn2ccc(C(=O)OCCCCl)n2)cc1)C(F)(F)F [compound 362],0,100,–
CCOC(=O)c1cnn(Cc2cccc(O/C=C(\OC)C(F)(F)F)c2)c1 [compound 365],0,100,–
